From patent publication US10414759B2, “Phenylthiazoles and uses thereof” (Purdue Research Foundation, priority 2017, dated 2019)
In brackets after ≈: the same amount, converted by molar mass.

Experiments:
[1] = test system: MRSA (USA300); assay: Time-kill assay; assay type: cell-based, Staphylococcus aureus; conditions: 3.0×MIC
Experimental: Aliquots (100 μL) were taken from each sample after 2, 4, 6, 8, 10, 12, and 24 hours, serially diluted in phosphate-buffered saline, and transferred to Trypticase soy agar (TSA) (Becton, Dickinson and Company, Sparks, Md., USA) plates. Plates were incubated at 37° C. for at least 16 hours before counting viable CFU/mL to determine the time required to reduce the bacterial cell count by 3-log10.

[2] = test system: VRS10 (VRSA); assay: MIC/MBC S. aureus strains (Table 8); assay type: cell-based; conditions: Staphylococcus aureus, Table 8, VRS10 (VRSA); for MBC: read-out: MBC
Experimental: (§1) The minimum inhibitory concentration (MIC) of tested compounds and control antibiotics were determined using the broth microdilution method in accordance with the recommendations contained in the Clinical and Laboratory Standards Institute guidelines, against methicillin-sensitive (ATCC 6538 and NRS107), methicillin-resistant (MRSA), and vancomycin-resistant (VRSA) Staphylococcus aureus, Staphylococcus epidermidis, Enterococcus faecalis, E. faecium, Listeria monocytogenes, and Streptococcus pneumoniae clinical isolates. A bacterial solution equivalent to 0.5 McFarland standard was prepared and diluted in cation-adjusted Mueller-Hinton broth (CAMHB) to achieve a bacterial concentration of about 5×10^5 CFU/mL and seeded in 96-well plates. Enterococcus faecium was diluted in brain heart infusion broth. Enterococcus faecalis, Streptococcus pneumonia and Listeria monocytogenes were diluted in tryptone soya broth (TSB). Compounds and control drugs were added in the first row of 96-well plates and serially diluted (to achieve a concentration gradient ranging from 128 to 1 μg/mL). Plates were then incubated aerobically at 37° C. for at least 18 hours. The minimum bactericidal concentration (MBC) of the active compounds was tested by plating 5 μL from wells with no growth onto Tryptic soy agar (TSA) plates.

[3] = test system: VRS12 (VRSA); assay: MIC/MBC S. aureus strains (Table 8); assay type: cell-based; conditions: Staphylococcus aureus, Table 8, VRS12 (VRSA); for MBC: read-out: MBC
Experimental: as §1

[4] = test system: MRSA NRS386; assay: MIC/MBC S. aureus strains (Table 8); assay type: cell-based; conditions: Staphylococcus aureus
Experimental: (§2) A bacterial solution equivalent to 0.5 McFarland standard was prepared and diluted in cation-adjusted Mueller-Hinton broth (CAMHB) to achieve a bacterial concentration of about 5×10^5 CFU/mL and seeded in 96-well plates. Enterococcus faecium was diluted in brain heart infusion broth. Enterococcus faecalis, Streptococcus pneumonia and Listeria monocytogenes were diluted in tryptone soya broth (TSB).

[5] = test system: MRSA NRS119; assay: MIC/MBC S. aureus strains (Table 8); assay type: cell-based; conditions: Staphylococcus aureus
Experimental: as §2

[6] = test system: MRSA NRS384 (USA300); assay: MIC/MBC S. aureus strains (Table 8); assay type: cell-based; conditions: Staphylococcus aureus
Experimental: as §2

[7] = test system: MRSA NRS123 (USA400); assay: MIC/MBC S. aureus strains (Table 8); assay type: cell-based; conditions: Staphylococcus aureus
Experimental: as §2

[8] = test system: MRSA NRS385; assay: MIC/MBC S. aureus strains (Table 8); assay type: cell-based; conditions: Staphylococcus aureus
Experimental: as §2

[9] = test system: S. aureus ATCC 6538; assay: MIC/MBC S. aureus strains (Table 8); assay type: cell-based; conditions: Staphylococcus aureus, ATCC6538
Experimental: as §2

[10] = test system: Listeria monocytogenes ATCC 19111; assay: MIC/MBC Gram-positive pathogens (Table 9); assay type: cell-based
Experimental: as §2

[11] = test system: Enterococcus faecalis ATCC 51299 (VRE); assay: MIC/MBC Gram-positive pathogens (Table 9); assay type: cell-based; conditions: Table 9, Enterococcus faecalis ATCC 51299 (VRE)
Experimental: as §2

[12] = test system: Cephalosporin-resistant Streptococcus pneumoniae ATCC 51916; assay: MIC/MBC Gram-positive pathogens (Table 9); assay type: cell-based; conditions: ATCC51916
Experimental: as §2

[13] = test system: Methicillin-resistant Streptococcus pneumoniae ATCC 700677; assay: MIC/MBC Gram-positive pathogens (Table 9); assay type: cell-based; conditions: ATCC700677
Experimental: as §2

[14] = test system: Methicillin-resistant Staphylococcus epidermidis NRS101; assay: MIC/MBC Gram-positive pathogens (Table 9); assay type: cell-based
Experimental: as §2

[15] = test system: S. aureus NRS107; assay: MIC/MBC S. aureus strains (Table 8); assay type: cell-based, Staphylococcus aureus
Experimental: as §2

[16] = test system: Enterococcus faecium ATCC 700221 (VRE); assay: MIC/MBC Gram-positive pathogens (Table 9); assay type: cell-based; conditions: Table 9; Enterococcus faecium ATCC 700221 (VRE); read-out: MIC
Experimental: as §1

[17] = test system: MRSA (2658 RCMB); assay: MIC against MRSA (2658 RCMB), broth dilution; assay type: cell-based, Staphylococcus aureus; conditions: Staphylococcus aureus; Table 7; initial screening, MRSA (2658 RCMB); read-out: minimum inhibitory concentration (MIC)
Experimental: (§3) Bacteria were cultured in cation-adjusted Mueller Hinton broth in a 96-well plate. Compounds, using triplicate samples, were added to the plate and serially diluted. […] Plates were visually inspected and the MIC was categorized as the concentration at which no visible growth of bacteria was observed. The average of triplicate MIC determinations is reported.
as §2

[18] = test system: VRSA10; assay: MIC/MBC clinical isolate panel (Table 3); assay type: cell-based, S. aureus; conditions: Staphylococcus aureus, Table 3, VRSA10
Experimental: as §3, with “MRSA clinical isolates, and vancomycin-resistant Staphylococcus aureus (VRSA) strain were obtained through the Network of Antimicrobial Resistance in Staphylococcus aureus (NARSA) program. In addition, vancomycin-resistant Enterococcus faecium (VRE) strain was obtained from the ATCC. Bacteria” for “Bacteria”
as §1

[19] = test system: VRE ATCC 700221; assay: MIC/MBC clinical isolate panel (Table 3); assay type: cell-based, Enterococcus faecium; conditions: Enterococcus, Table 3, VRE ATCC 700221
Experimental: as §3, with “MRSA clinical isolates, and vancomycin-resistant Staphylococcus aureus (VRSA) strain were obtained through the Network of Antimicrobial Resistance in Staphylococcus aureus (NARSA) program. In addition, vancomycin-resistant Enterococcus faecium (VRE) strain was obtained from the ATCC. Bacteria” for “Bacteria”
as §1

[20] = test system: NRS383 (MRSA USA200); assay: MIC/MBC clinical isolate panel (Table 3); assay type: cell-based, S. aureus; conditions: Staphylococcus aureus, Table 3, NRS383 (MRSA USA200)
Experimental: as §3, §2

[21] = test system: NRS123 (MRSA USA400); assay: MIC/MBC clinical isolate panel (Table 3); assay type: cell-based, S. aureus; conditions: Staphylococcus aureus; Table 3; NRS123 (MRSA USA400)
Experimental: as §3, §2

[22] = test system: NRS72 (MSSA); assay: MIC/MBC clinical isolate panel (Table 3); assay type: cell-based, S. aureus; conditions: Staphylococcus aureus, Table 3, NRS72 (MSSA)
Experimental: as §3, §2

[23] = test system: NRS382 (MRSA USA100); assay: MIC/MBC clinical isolate panel (Table 3); assay type: cell-based, S. aureus; conditions: Staphylococcus aureus, Table 3, NRS382 (MRSA USA100)
Experimental: as §3, §2

[24] = test system: NRS384 (MRSA USA300); assay: MIC/MBC clinical isolate panel (Table 3); assay type: cell-based, S. aureus; conditions: Staphylococcus aureus; Table 3; NRS384 (MRSA USA300)
Experimental: as §3, §2

[25] = Staphylococcus aureus, Table 8, S. aureus NRS107

In the case of `Cc1nc(-c2ccc(C(C)(C)C)cc2)sc1-c1ccnc(NC(=N)c2ccccn2)n1` [Compound 64, N-(4-(2-(4-(tert-Butyl)phenyl)-4-methylthiazol-5-yl)pyrimidin-2-yl) picolinimidamide], the “time to three-log10 reduction in the initial inoculum of MRSA” value [1] is reported as “within six hours”, the “bactericidal / bacteriostatic behaviour in time-kill assay, in words” value ([1]; MRSA) is reported as “rapid bactericidal activity” and the “time to completely eradicate the MRSA inoculum” value ([1]; t-butyl series) is reported as no more than 24 h. For the same compound, the MBC [2] was 4 µg/mL (≈ 9.33 µM), the MIC ([2]; read-out: MIC) was 2 µg/mL (≈ 4.67 µM) and the MBC [3] was 4 µg/mL (≈ 9.33 µM). The MIC ([3]; read-out: MIC) was 4 µg/mL (≈ 9.33 µM), the MBC [4] was 2 µg/mL (≈ 4.67 µM) and the MIC [4] was 2 µg/mL (≈ 4.67 µM). It also gave an MBC [5] of 4 µg/mL (≈ 9.33 µM), an MIC [5] of 4 µg/mL (≈ 9.33 µM) and an MBC [6] of 4 µg/mL (≈ 9.33 µM). The MIC [6] was 4 µg/mL (≈ 9.33 µM), the MBC [7] was 2 µg/mL (≈ 4.67 µM) and the MIC [7] was 2 µg/mL (≈ 4.67 µM). It also gave an MBC [8] of 4 µg/mL (≈ 9.33 µM), an MIC [8] of 4 µg/mL (≈ 9.33 µM) and an MBC [9] of 4 µg/mL (≈ 9.33 µM). The MIC [9] was 2 µg/mL (≈ 4.67 µM), the MIC ([10]; ATCC19111, Table 9, Listeria monocytogenes ATCC 19111) was 2 µg/mL (≈ 4.67 µM) and the “MBC values relative to MIC values against L. monocytogenes” value ([10]; text b122) was “more than three-fold higher”. For the same compound, the MIC [11] was 64 µg/mL (≈ 149 µM), the MBC ([11]; read-out: MBC) was greater than 64 µg/mL and the MBC [12] was 4 µg/mL (≈ 9.33 µM). The MIC [12] was 4 µg/mL (≈ 9.33 µM), the MBC [13] was 8 µg/mL (≈ 18.7 µM) and the MIC [13] was 8 µg/mL (≈ 18.7 µM). The MBC [14] was greater than 64 µg/mL, the MIC [14] was 64 µg/mL (≈ 149 µM) and the MBC [15, 25] was greater than 64 µg/mL. The MIC [15, 25] was 64 µg/mL (≈ 149 µM), the “activity against S. aureus NRS107, in words” value ([15]; text b117) was “inactive” and the MIC [16] was 4 µg/mL (≈ 9.33 µM). For the same compound, the MIC [17] was 0.78 µg/mL (≈ 1.82 µM).
In the case of `CC(=O)NC[C@H]1CN(c2ccc(N3CCOCC3)c(F)c2)C(=O)O1` [Linezolid, linezolid], the MBC ([18]; read-out: MBC) is reported as 2 µg/mL (≈ 5.93 µM), the MIC ([18]; read-out: MIC) is reported as 1 µg/mL (≈ 2.96 µM) and the MBC [2] is reported as 64 µg/mL (≈ 190 µM). The MBC [3] was 64 µg/mL (≈ 190 µM), the MBC [4] was 64 µg/mL (≈ 190 µM) and the MBC [5] was greater than 64 µg/mL. The MIC [5] was 32 µg/mL (≈ 94.9 µM), the MIC [6] was 1 µg/mL (≈ 2.96 µM) and the MIC [7] was 1 µg/mL (≈ 2.96 µM). It also gave an MBC ([19]; read-out: MBC) of 32 µg/mL (≈ 94.9 µM), an MIC ([19]; read-out: MIC) of 1 µg/mL (≈ 2.96 µM) and an MBC [20] of 32 µg/mL (≈ 94.9 µM). For the same compound, the MIC ([20]; read-out: MIC) was 1 µg/mL (≈ 2.96 µM), the MBC [21] was 16 µg/mL (≈ 47.4 µM) and the MBC [22] was 2 µg/mL (≈ 5.93 µM). For the same compound, the MIC ([22]; read-out: MIC) was 1 µg/mL (≈ 2.96 µM), the MBC [23] was 8 µg/mL (≈ 23.7 µM) and the MIC ([23]; read-out: MIC) was 1 µg/mL (≈ 2.96 µM). For the same compound, the MBC [24] was 4 µg/mL (≈ 11.9 µM).
